{
  "source": "ChEMBL document CHEMBL5465560",
  "about": "“Selectivity Literature for EUbOPEN Chemogenomic Library” (2024)",
  "key": {"[1]": {"target": "T1, Phosphatidylinositol 4,5-bisphosphate 3-kinase catalytic subunit delta isoform (Homo sapiens) (UniProt O00329)", "T1 sequence (whole entry)": "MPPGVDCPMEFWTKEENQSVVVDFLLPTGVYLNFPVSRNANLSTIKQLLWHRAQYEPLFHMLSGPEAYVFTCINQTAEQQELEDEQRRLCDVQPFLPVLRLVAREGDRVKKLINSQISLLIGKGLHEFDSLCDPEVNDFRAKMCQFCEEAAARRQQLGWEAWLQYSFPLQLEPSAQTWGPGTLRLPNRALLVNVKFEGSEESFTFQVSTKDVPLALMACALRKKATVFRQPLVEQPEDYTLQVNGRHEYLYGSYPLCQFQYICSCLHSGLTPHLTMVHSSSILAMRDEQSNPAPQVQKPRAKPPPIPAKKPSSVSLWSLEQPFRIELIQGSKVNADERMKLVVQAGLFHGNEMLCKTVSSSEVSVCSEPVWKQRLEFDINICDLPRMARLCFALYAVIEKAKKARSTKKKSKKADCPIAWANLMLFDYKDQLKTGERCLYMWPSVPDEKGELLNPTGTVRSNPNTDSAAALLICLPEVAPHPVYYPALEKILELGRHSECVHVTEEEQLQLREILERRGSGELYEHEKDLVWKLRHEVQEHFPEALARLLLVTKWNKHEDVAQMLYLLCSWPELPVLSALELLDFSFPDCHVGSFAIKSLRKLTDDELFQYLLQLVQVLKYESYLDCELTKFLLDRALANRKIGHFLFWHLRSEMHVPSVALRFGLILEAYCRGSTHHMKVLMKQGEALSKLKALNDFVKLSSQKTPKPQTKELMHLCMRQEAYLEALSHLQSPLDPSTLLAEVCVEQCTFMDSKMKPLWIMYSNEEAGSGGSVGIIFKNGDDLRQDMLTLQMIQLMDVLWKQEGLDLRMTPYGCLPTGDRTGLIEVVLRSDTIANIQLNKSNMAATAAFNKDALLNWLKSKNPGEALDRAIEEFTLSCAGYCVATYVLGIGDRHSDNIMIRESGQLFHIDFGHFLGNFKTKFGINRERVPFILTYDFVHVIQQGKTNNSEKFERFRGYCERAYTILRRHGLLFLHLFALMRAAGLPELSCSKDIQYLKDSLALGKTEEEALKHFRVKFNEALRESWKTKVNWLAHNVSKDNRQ", "assay": "Selectivity interaction (KinomeScan (DiscoverX)) EUB0000607a PIK3CD", "conditions": "at 10 µM"}, "[2]": {"target": "Cyclin-dependent kinase 8 (Homo sapiens, UniProt P49336)", "sequence (P49336 whole entry)": "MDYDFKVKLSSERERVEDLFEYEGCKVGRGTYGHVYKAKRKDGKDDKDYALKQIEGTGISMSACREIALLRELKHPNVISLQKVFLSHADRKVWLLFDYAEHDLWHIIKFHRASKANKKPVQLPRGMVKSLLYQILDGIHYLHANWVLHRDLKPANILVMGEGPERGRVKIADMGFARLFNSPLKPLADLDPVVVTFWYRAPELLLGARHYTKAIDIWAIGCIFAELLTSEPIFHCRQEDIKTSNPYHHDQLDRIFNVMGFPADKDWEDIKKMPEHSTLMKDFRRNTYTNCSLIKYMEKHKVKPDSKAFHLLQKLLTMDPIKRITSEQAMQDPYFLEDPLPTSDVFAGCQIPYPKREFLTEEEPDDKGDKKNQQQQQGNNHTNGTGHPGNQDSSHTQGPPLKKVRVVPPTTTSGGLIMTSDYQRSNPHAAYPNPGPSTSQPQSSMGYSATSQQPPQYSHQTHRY", "assay": "Selectivity interaction (ActivX KiNativ screen (ex vivo kinase selectivity in human PBMCs)) EUB0001619a CDK8", "assay_type": "cell-based", "conditions": "PBMC, at 1 µM"}, "[3]": {"target": "Serine/threonine-protein kinase PAK 3 (Homo sapiens) (UniProt O75914)", "sequence (O75914 whole entry, looked up)": "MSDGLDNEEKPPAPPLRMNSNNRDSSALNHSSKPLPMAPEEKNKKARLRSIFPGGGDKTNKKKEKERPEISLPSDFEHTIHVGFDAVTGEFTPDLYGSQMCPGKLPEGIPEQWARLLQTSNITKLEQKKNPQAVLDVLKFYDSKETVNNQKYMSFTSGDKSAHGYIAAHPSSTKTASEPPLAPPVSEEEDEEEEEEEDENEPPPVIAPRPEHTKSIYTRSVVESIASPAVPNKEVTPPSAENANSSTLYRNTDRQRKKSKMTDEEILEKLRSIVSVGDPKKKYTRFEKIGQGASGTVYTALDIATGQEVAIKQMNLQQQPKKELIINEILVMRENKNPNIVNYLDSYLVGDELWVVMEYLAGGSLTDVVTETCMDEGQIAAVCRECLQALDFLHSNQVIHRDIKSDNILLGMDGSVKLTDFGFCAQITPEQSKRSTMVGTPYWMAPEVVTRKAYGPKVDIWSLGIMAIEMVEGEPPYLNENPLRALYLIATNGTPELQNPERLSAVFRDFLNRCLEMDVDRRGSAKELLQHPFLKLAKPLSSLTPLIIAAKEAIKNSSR", "assay": "Selectivity interaction (KinomeScan (DiscoverX)) EUB0000595a PAK3", "conditions": "at 10 µM"}, "[4]": {"target": "Mitogen-activated protein kinase 10 (Homo sapiens, UniProt P53779)", "sequence (P53779 whole entry)": "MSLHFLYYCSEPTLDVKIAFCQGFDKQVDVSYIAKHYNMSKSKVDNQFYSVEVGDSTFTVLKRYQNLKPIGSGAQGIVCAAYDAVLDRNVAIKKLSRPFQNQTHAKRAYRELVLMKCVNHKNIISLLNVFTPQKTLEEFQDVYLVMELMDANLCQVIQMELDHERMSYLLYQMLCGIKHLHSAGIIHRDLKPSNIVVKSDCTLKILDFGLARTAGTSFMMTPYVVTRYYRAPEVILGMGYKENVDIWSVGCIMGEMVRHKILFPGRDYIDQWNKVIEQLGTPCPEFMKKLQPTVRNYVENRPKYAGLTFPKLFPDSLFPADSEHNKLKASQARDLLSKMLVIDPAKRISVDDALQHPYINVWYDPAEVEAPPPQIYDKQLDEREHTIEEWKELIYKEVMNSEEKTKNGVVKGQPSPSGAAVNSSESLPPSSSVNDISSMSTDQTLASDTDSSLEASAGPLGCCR", "assay": "Selectivity interaction (Upstate Kinase Profiler service (Millipore)) EUB0000056c MAPK10", "conditions": "at 1 µM"}, "[5]": {"target": "Serine/threonine-protein kinase Nek6 (Homo sapiens) (UniProt Q9HC98)", "sequence (Q9HC98 whole entry)": "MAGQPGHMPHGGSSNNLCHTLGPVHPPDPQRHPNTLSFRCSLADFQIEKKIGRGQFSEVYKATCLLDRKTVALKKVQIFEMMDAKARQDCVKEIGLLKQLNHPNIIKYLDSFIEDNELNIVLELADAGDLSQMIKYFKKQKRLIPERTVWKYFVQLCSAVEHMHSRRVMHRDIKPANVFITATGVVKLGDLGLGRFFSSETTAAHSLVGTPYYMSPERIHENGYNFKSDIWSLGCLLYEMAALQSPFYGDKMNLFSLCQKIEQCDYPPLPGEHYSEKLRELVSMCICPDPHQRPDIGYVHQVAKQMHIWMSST", "conditions": "at 10 µM"}, "[6]": {"target": "T2, Serine/threonine-protein kinase 17A (Homo sapiens) (UniProt Q9UEE5)", "T2 sequence (whole entry)": "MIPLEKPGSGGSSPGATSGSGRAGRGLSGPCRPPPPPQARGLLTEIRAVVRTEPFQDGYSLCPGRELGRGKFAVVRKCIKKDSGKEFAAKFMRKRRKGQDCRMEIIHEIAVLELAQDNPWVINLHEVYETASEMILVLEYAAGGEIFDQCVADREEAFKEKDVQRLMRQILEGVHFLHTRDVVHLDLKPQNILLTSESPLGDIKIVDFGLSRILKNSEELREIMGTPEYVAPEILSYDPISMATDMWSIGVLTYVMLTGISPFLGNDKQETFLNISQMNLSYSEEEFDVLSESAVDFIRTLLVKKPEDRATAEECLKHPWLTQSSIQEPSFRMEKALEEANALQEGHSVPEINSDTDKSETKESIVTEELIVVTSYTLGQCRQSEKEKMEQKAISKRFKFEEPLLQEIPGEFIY", "assay": "Selectivity interaction (KinomeScan (DiscoverX)) EUB0000666a STK17A", "conditions": "at 10 µM"}, "[7]": {"assay": "Selectivity interaction (KinomeScan (DiscoverX)) EUB0000695a CDK2H", "conditions": "at 100 nM"}, "[8]": {"target": "T3, Serine/threonine-protein kinase Nek10 (Homo sapiens) (UniProt Q6ZWH5)", "T3 sequence (whole entry)": "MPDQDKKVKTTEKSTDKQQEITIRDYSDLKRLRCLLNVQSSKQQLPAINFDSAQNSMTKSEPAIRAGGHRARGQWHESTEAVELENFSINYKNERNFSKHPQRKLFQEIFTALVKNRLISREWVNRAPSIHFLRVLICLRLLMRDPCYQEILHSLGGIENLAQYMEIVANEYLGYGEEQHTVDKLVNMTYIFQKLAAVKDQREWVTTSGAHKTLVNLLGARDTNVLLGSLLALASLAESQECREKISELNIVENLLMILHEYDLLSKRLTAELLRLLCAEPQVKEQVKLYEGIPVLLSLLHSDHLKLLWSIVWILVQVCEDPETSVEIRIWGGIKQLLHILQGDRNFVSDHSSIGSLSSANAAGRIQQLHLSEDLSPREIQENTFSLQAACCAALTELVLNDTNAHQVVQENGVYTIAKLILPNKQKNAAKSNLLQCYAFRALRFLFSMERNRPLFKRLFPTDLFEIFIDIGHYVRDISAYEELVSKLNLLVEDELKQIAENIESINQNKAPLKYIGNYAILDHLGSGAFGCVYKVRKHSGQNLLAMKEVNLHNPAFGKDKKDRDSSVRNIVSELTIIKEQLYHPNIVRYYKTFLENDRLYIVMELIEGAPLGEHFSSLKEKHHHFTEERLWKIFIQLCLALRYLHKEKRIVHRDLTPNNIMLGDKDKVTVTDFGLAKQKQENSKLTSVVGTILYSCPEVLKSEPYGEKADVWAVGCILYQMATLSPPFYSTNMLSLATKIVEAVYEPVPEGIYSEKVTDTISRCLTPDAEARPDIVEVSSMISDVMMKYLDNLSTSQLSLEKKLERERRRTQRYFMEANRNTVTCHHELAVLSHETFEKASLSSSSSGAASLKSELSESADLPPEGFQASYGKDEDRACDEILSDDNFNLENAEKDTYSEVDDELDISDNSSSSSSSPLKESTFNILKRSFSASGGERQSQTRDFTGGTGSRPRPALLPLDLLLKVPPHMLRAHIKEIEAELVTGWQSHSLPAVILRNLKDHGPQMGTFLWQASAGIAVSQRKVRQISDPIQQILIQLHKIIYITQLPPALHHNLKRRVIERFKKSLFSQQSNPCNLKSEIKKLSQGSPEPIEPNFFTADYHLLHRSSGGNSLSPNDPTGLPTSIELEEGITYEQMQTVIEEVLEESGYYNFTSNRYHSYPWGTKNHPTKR", "assay": "Selectivity interaction (KinomeScan (DiscoverX)) EUB0000695a NEK10", "conditions": "at 100 nM"}},
  "data": [
    {"smiles": "CNC(=O)Nc1ccc(-c2nc(N3CC4CCC(C3)O4)c3cnn(C4CCC5(CC4)OCCO5)c3n2)cc1", "values": [
      {"measurement": "% of control", "setting": "[1]", "result": 5.7, "unit": "%"}
    ]},
    {"smiles": "N#Cc1cccc(-c2c[nH]c3ncnc(N4CCOCC4)c23)c1", "values": [
      {"measurement": "% of inhibition", "setting": "[2]", "result": 36, "unit": "%"}
    ]},
    {"smiles": "COCC(=O)NC/C=C/c1ccc2ncnc(Nc3ccc(Oc4ccc(C)nc4)c(C)c3)c2c1", "note": "[CP-724714]", "values": [
      {"measurement": "% of control", "setting": "[3]", "result": 70, "unit": "%"}
    ]},
    {"smiles": "Cc1ccc(-c2ccc3c(ccc4sc5c(c43)NC[C@@H](C)NC5=O)n2)cn1", "values": [
      {"measurement": "% of inhibition", "setting": "[4]", "result": -5, "unit": "%"}
    ]},
    {"smiles": "Cc1cc([C@@H](C)Nc2ccccc2C(=O)O)c2nc(N3CCOCC3)cc(=O)n2c1", "note": "[AZD-6482]", "values": [
      {"measurement": "% of control", "setting": "[5]", "result": 100, "unit": "%"}
    ]},
    {"smiles": "O=C(NOC[C@H](O)CO)c1ccc(F)c(F)c1Nc1ccc(I)cc1F", "values": [
      {"measurement": "% of control", "setting": "[6]", "result": 100, "unit": "%"}
    ]},
    {"smiles": "Cc1cc(F)c(C(=O)Nc2cccc(-c3nncn3C(C)C)n2)cc1-n1cnc(C2CC2)c1", "values": [
      {"measurement": "% of control", "setting": "[7]", "result": 92, "unit": "%"},
      {"measurement": "% of control", "setting": "[8]", "result": 84, "unit": "%"}
    ]}
  ]
}
